# Test results published in patent publication US20250160318A1, “CRYOPRESERVATION SOLUTION AND USE THEREOF IN REDUCING ISCHEMIA-REPERFUSION INJURY (IRI) OF CELL, TISSUE, OR ORGAN” (Third Affiliated Hospital, Sun Yat-sen University, priority 2023, published 2025).
# How the values were obtained:
# rat liver = assay: Static cold storage and rewarming/reperfusion of isolated rat liver (H&E sectioning, TUNEL staining); details: phosphocholine supplemented during rewarming/reperfusion, 4° C. 48 h, perfused 37° C. 2 h, FIGS. 8A-8C
# Procedure: 2-3 month old male/female SD rats or 2-3 month old golden hamsters were fasted overnight and anesthetized by inhalation of isoflurane, and then given 50 IU of heparin. The bile duct was cannulated with a PE-10 catheter, and the portal vein was cannulated with a 22-G Introcan catheter. The liver was washed with physiological saline, UW, or UW supplemented with phosphocholine (50 μM) and collected. A perfusion system was established in a circulation mode, and 250 mL of a Krebs-Henseleit (KH) bicarbonate buffer or KH buffer supplemented with phosphocholine (500 μM) was prepared. Oxygenation was conducted in a mixed gas of 95% O2 and 5% CO2 through a fiber oxygenator to a partial pressure of oxygen exceeding 500 mmHg. The liver was stored at 4° C. for 48 h, equilibrated at room temperature for 10 min, and perfused at 37° C. for 2 h. A flow rate was set in pressure control mode, and a portal vein pressure (PVP) was kept constant at 12 mmHg. The flow rate and PVP were automatically monitored and recorded. The portal vein resistance (PVR) was calculated as follows: PVR (mmHg/mL×min×g liver)=PVP (12 mmHg)/portal vein flow rate (mLxminxg liver). Liver samples were fixated in 4% paraformaldehyde for subsequent H&E sectioning and TUNEL staining. […]
# hUC-MSCs [1] = assay: Culture of hUC-MSCs plated after 72 h cryopreservation (cell status by light microscopy, cell number after 3 days); format: cell-based, human; details: hUC-MSCs after 72 h cryopreservation in Hibernate-A plus metabolite, 37° C., FIG. 3
# From the text: (§1) Cells used in this experiment were: hUC-MSCs (donated umbilical cord tissues from the Biotherapy Center of the Third Affiliated Hospital of Sun Yat-sen University and newborns).
# (§2) The number of cells used in this experiment was: 1×10^6 cells.
# (§3) The basic cryopreservation solution used in this experiment was Hibernate™-A medium (Thermofisher, catalog number: GIBCO A1247501), and the components were shown in Table 1.
# (§4) The experimental groups of this example included: Hibernate™-A, Hibernate™-A+TUDCA, Hibernate™-A+QCA, and Hibernate™-A+Phosphocholine.
# (§5) The experimental operation of this example included: 1 mL of the resuspended hUC-MSCs cells in Hibernate™-A basic cryopreservation solution with the above-mentioned specified metabolites added were placed in a 5 mL EP tube, allowed to stand at room temperature for 20 min, and then placed in a 4° C. refrigerator shaker for slow shaking to allow cryopreservation for 72 h. After cryopreservation for 72 h, the cells were centrifuged and counted with trypan blue to calculate the cell survival rate, and then plated on a 96-well plates for CCK8 cell proliferation assay. The remaining cells were continued to be plated on a 6-well plate and placed in a 37° C. cell culture incubator to observe the subsequent cell status.
# Hepatocytes = assay: Cryopreservation and rewarming of hepatocytes (MitoNeoD mitochondrial ROS, real-time imaging of cell membrane integrity); format: cell-based; details: UW solution with 50 μM phosphocholine, 4° C. 12 h, rewarming medium with 500 μM phosphocholine, 37° C. 2 h, FIGS. 7A-7B
# Procedure: Hepatocytes cultured under normal conditions served as a 37° C. control. For cold exposure treatment, the medium was replaced with UW solution at room temperature for 15 min, and the cells in UW solution (containing 50 μM phosphocholine) were transferred to a 4° C. refrigerator for 12 h. Rewarming involved taking cells out of the refrigerator and culturing with a pre-chilled medium (containing 500 μM phosphocholine). After allowing to stand for 15 min at room temperature, the cells were transferred to a 37° C. incubator for 2 h. The integrity of cell membranes is dynamically monitored by Real-time imaging using MitoNeoD live cell dye to assess the mitochondrial ROS and transfection of a plasmid carrying the mNeonGreen tag and the phospholipase Cδ PH domain.
# hUC-MSCs [2] = assay: Immediate cell survival rate of hUC-MSCs by trypan blue counting after 72 h cryopreservation at 4° C.; format: cell-based, human; details: metabolite added to Hibernate-A basic cryopreservation solution, FIG. 3
# From the text: as §1, §2, §3, §4, §5
ROS in hepatocyte mitochondria (Hepatocytes; MitoNeoD),integrity of hepatocyte membrane (Hepatocytes; mNeonGreen-PLCδ PH domain imaging),Structure (SMILES),cell apoptosis versus control group (TUNEL staining) (rat liver),sinus cavity (H&E sections) (rat liver),total number of cells obtained after being plated and cultured for 3 days versus basic cryopreservation solution control (hUC-MSCs [1]),immediate cell survival rate versus basic cryopreservation solution control (hUC-MSCs [2])
reduce,maintain the integrity,C[N+](C)(C)CCOP(=O)([O-])O [phosphocholine],milder,apparently normal,significantly more,slightly lower
–,–,"C[C@H](CCC(=O)NCCS(=O)(=O)[O-])[C@H]1CC[C@H]2[C@@H]3[C@@H](O)C[C@@H]4C[C@H](O)CC[C@]4(C)[C@H]3CC[C@]12C.[Na+] [TUDCA, sodium tauroursodeoxycholate]",–,–,significantly more,significantly higher
–,–,"O=C(O)c1ccnc2ccccc12 [QCA, quinoline-4-carboxylic acid]",–,–,significantly more,slightly lower
